Data: PubChem BioAssay AID1963969 (Molecular Pharmacology Branch, DTP, NCI, 2024)
One block for each compound: values may come before it.

Tested on: 817829-284-R-J1-PDC multi-cell spheroid viability
Test: Anticancer human tumor 817829-284-R-J1-PDC patient-derived colon adenocarcinoma cell line growth inhibition [PI3K]
Settings: for IC50: curve of first compound; for viability, T/C: stronger effect = lower value
Text: Combinatorial screen of targeted agents with the PI3K inhibitors inavolisib, alpelisib, duvelisib, and copanlisib in multi-cell type tumor spheroids
A high-throughput screen of multi-cell type tumor spheroids was designed to identify active combinations of targeted small molecules and PI3K pathway inhibitors. Complex spheroids include a stromal component modeled by human endothelial cells (HUVEC) and fibroblasts modeled by human mesenchymal stem cells (MSCs). The concentration ranges selected for each drug and investigational agent were based upon clinically achievable concentrations if the clinical Cmax of the agent was known.
Compounds. The drugs and investigational agents: inavolisib (NSC800729), alpelisib (NSC765974), duvelisib (NSC772469), copanlisib (NSC816437), ipatasertib (NSC767898), afuresertib (NSC778305), talazoparib (NSC767125), sapanisertib (NSC764658), selumetinib (NSC741078), tovorafenib (DAY101, NSC766906), vemurafenib (NSC761431), ravoxertinib (NSC781343), sotorasib (NSC818433), MRTX1133 (NSC 836407), abemaciclib (NSC 768073), palbociclib (NSC758247), venetoclax (NSC 766270), SY5609 (NSC837396), enzalutamide (NSC755605), and darolutamide (NSC825331), were obtained from the National Cancer Institute (NCI) Developmental Therapeutics Program Chemical Repository. The FDA-approved anticancer drug set is available from the NCI Developmental Therapeutics Program. […] The stock solutions were prepared in dimethyl sulfoxide (DMSO, Sigma-Aldrich, St. Louis, MO, cat. D2650) at 800-fold the tested concentration and stored at -70 degrees C prior to their use. All drugs and investigational agents were tested over a range starting from a high concentration at or near the clinical Cmax and decreasing in half-log increments. If the clinical Cmax for an agent had not been determined, the highest concentration tested was 10 microM.
Cell Culture. All cells were maintained in an incubator at 37 degrees C and 5% CO2 with 95% humidity. The PDC lines were cultured according to standard operating procedures established by the NCI PDMR (https://pdmr.cancer.gov/sops/default.htm). All PDCs were thawed and cultured in Matrigel-coated flasks prepared with a working solution of 1X Ham's F-12 nutrient mix, without supplementation (Invitrogen, Waltham, MA, cat. 11765054), 100 U/mL penicillin-streptomycin (Invitrogen, cat. 15140122), and 2.5% Matrigel (Corning Inc., Corning, NY, cat. 354248) for the first three passages. The 354836-022-R-J1-PDC, 475296-252-R-J1-PDC, and 997726-040-R-J2-PDC lines were cultured in 6A media, which includes advanced DMEM/F-12 (Thermo Fisher Scientific, cat. 12634028), 10 mM HEPES (Thermo Fisher Scientific, cat. 15630080), 1X GlutaMAX supplement (Thermo Fisher Scientific, cat. 35050061), 0.1 mg/mL primocin (InvivoGen, San Diego, CA, cat. ant-pm-2), 10% defined fetal bovine serum, heat inactivated (HyClone Laboratories Inc., Logan, UT, cat. SH30070.03HI), 50% L-WRN conditioned media (ATCC, cat. CRL-3276), 1.25 mM N-Acetyl-L-cysteine (Sigma-Aldrich, cat. A9165), 10 mM nicotinamide (Sigma-Aldrich, cat. N0636), 1X B-27 supplement (Thermo Fisher Scientific, cat. 17504044), 1X N-2 supplement (Thermo Fisher Scientific, cat. 17502048), and 10 microM Y-27632 dihydrochloride (Tocris Bioscience, Bristol, United Kingdom, cat. 1254). The 624824-186-R-J2-PDC line was cultured in 6C/Colon 1B media, which includes all 6A media components plus 50 ng/mL human EGF recombinant protein (Thermo Fisher Scientific, cat. PHG0311). […]

[1] = second compound 0.0316 µM, first compound 0.0316 µM
[2] = second compound 0.0316 µM, first compound 0.1 µM
[3] = second compound 0.0316 µM, first compound 0.316 µM
[4] = second compound 0.0316 µM, first compound 1 µM
[5] = second compound 0.0316 µM, first compound 3.16 µM
[6] = second compound 0.0316 µM, first compound 10 µM
[7] = second compound 0.1 µM, first compound 0.0316 µM
[8] = second compound 0.1 µM, first compound 0.1 µM
[9] = second compound 0.1 µM, first compound 0.316 µM
[10] = second compound 0.1 µM, first compound 1 µM
[11] = second compound 0.1 µM, first compound 3.16 µM
[12] = second compound 0.1 µM, first compound 10 µM
[13] = second compound 0.316 µM, first compound 0.0316 µM
[14] = second compound 0.316 µM, first compound 0.1 µM
[15] = second compound 0.316 µM, first compound 0.316 µM
[16] = second compound 0.316 µM, first compound 1 µM
[17] = second compound 0.316 µM, first compound 3.16 µM
[18] = second compound 0.316 µM, first compound 10 µM
[19] = second compound 1 µM, first compound 0.0316 µM
[20] = second compound 1 µM, first compound 0.1 µM
[21] = second compound 1 µM, first compound 0.316 µM
[22] = second compound 1 µM, first compound 1 µM
[23] = second compound 1 µM, first compound 3.16 µM
[24] = second compound 1 µM, first compound 10 µM
[25] = second compound 0.00316 µM, first compound 0.0316 µM
[26] = second compound 0.00316 µM, first compound 0.1 µM
[27] = second compound 0.00316 µM, first compound 0.316 µM
[28] = second compound 0.00316 µM, first compound 1 µM
[29] = second compound 0.00316 µM, first compound 3.16 µM
[30] = second compound 0.00316 µM, first compound 10 µM
[31] = second compound 0.01 µM, first compound 0.0316 µM
[32] = second compound 0.01 µM, first compound 0.1 µM
[33] = second compound 0.01 µM, first compound 0.316 µM
[34] = second compound 0.01 µM, first compound 1 µM
[35] = second compound 0.01 µM, first compound 3.16 µM
[36] = second compound 0.01 µM, first compound 10 µM
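Further: spheroids exposed to agents for seven days before readout.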
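Wherever viability, T/C is given: percent of vehicle DMSO control viability which is 100%.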

- IC50 (second compound 0.0316 µM): > 10 µM
- IC50 (second compound 0.1 µM): 8.49 µM
- IC50 (second compound 0.316 µM): > 10 µM
- IC50 (second compound 1 µM): > 10 µM
- IC50 (second compound 3.16 µM): > 10 µM
- IC50 (second compound 10 µM): > 10 µM
Structure (SMILES): CC(Cn1ccc(-c2ccc(C#N)c(Cl)c2)n1)NC(=O)c1cc(C(C)O)[nH]n1 (stereo unspecified) + CC(Nc1ncnc2nc[nH]c12)c1cc2cccc(Cl)c2c(=O)n1-c1ccccc1
- viability, T/C [1]: 71.5%
- viability, T/C [2]: 78.8%
- viability, T/C [3]: 98.5%
- viability, T/C [4]: 64.6%
- viability, T/C [5]: 75.5%
- viability, T/C [6]: 75.1%
- viability, T/C [7]: 106%
- viability, T/C [8]: 82.7%
- viability, T/C [9]: 95.7%
- viability, T/C [10]: 83.2%
- viability, T/C [11]: 87.7%
- viability, T/C [12]: 43.4%
- viability, T/C [13]: 109%
- viability, T/C [14]: 82.7%
- viability, T/C [15]: 105%
- viability, T/C [16]: 66.6%
- viability, T/C [17]: 99.8%
- viability, T/C [18]: 66.3%
- viability, T/C [19]: 83.9%
- viability, T/C [20]: 78.8%
- viability, T/C [21]: 100%
- viability, T/C [22]: 74.5%
- viability, T/C [23]: 91.3%
- viability, T/C [24]: 102%
- viability, T/C (second compound 3.16 µM, first compound 0.0316 µM): 90.9%
- viability, T/C (second compound 3.16 µM, first compound 0.1 µM): 53.7%
- viability, T/C (second compound 3.16 µM, first compound 0.316 µM): 79.1%
- viability, T/C (second compound 3.16 µM, first compound 1 µM): 90.4%
- viability, T/C (second compound 3.16 µM, first compound 3.16 µM): 47.5%
- viability, T/C (second compound 3.16 µM, first compound 10 µM): 71.4%
- viability, T/C (second compound 10 µM, first compound 0.0316 µM): 67.6%
- viability, T/C (second compound 10 µM, first compound 0.1 µM): 48.2%
- viability, T/C (second compound 10 µM, first compound 0.316 µM): 71.3%
- viability, T/C (second compound 10 µM, first compound 1 µM): 51%
- viability, T/C (second compound 10 µM, first compound 3.16 µM): 67.5%
- viability, T/C (second compound 10 µM, first compound 10 µM): 40.1%

- IC50 (second compound 0.00316 µM): 0.073 µM
- IC50 (second compound 0.01 µM): 0.0799 µM
- IC50 (second compound 0.0316 µM): 0.0452 µM
- IC50 (second compound 0.1 µM): < 0.0316 µM
- IC50 (second compound 0.316 µM): < 0.0316 µM
- IC50 (second compound 1 µM): < 0.0316 µM
Structure (SMILES): Cn1ncc(Cl)c1-c1cc(C(=O)NC(CN)Cc2cccc(F)c2)sc1Cl (stereo unspecified) + COc1c(OCCCN2CCOCC2)ccc2c3n(c(=NC(=O)c4cnc(N)nc4)nc12)CCN3
- viability, T/C [25]: 105%
- viability, T/C [26]: 29.4%
- viability, T/C [27]: 21.1%
- viability, T/C [28]: 20.9%
- viability, T/C [29]: 18.1%
- viability, T/C [30]: 15.5%
- viability, T/C [31]: 69.6%
- viability, T/C [32]: 46.2%
- viability, T/C [33]: 25.6%
- viability, T/C [34]: 25.9%
- viability, T/C [35]: 18.3%
- viability, T/C [36]: 10.8%
- viability, T/C [1]: 59%
- viability, T/C [2]: 31.2%
- viability, T/C [3]: 16.8%
- viability, T/C [4]: 20.9%
- viability, T/C [5]: 15.8%
- viability, T/C [6]: 10.5%
- viability, T/C [7]: 25.4%
- viability, T/C [8]: 25.4%
- viability, T/C [9]: 21.2%
- viability, T/C [10]: 15.2%
- viability, T/C [11]: 13.9%
- viability, T/C [12]: 10.3%
- viability, T/C [13]: 20.2%
- viability, T/C [14]: 23.4%
- viability, T/C [15]: 15.2%
- viability, T/C [16]: 12.2%
- viability, T/C [17]: 11.1%
- viability, T/C [18]: 8.71%
- viability, T/C [19]: 9.57%
- viability, T/C [20]: 11.1%
- viability, T/C [21]: 8.51%
- viability, T/C [22]: 9.47%
- viability, T/C [23]: 7.2%
- viability, T/C [24]: 8.41%

- IC50 (second compound 0.00316 µM): 8.67 µM
- IC50 (second compound 0.01 µM): 5.16 µM
- IC50 (second compound 0.0316 µM): > 10 µM
- IC50 (second compound 0.1 µM): > 10 µM
- IC50 (second compound 0.316 µM): 4.35 µM
- IC50 (second compound 1 µM): < 0.0316 µM
Structure (SMILES): C#Cc1c(F)ccc2cc(O)cc(-c3ncc4c(N5CC6CCC(C5)N6)nc(OCC56CCCN5CC(F)C6)nc4c3F)c12 (stereo unspecified) + CC(Nc1ccc2c(c1)OCCn1cc(N3C(=O)OCC3C(F)F)nc1-2)C(N)=O
- viability, T/C [25]: 83.7%
- viability, T/C [26]: 75.3%
- viability, T/C [27]: 87.4%
- viability, T/C [28]: 77.4%
- viability, T/C [29]: 69.9%
- viability, T/C [30]: 47.2%
- viability, T/C [31]: 90%
- viability, T/C [32]: 84.8%
- viability, T/C [33]: 72.7%
- viability, T/C [34]: 79.9%
- viability, T/C [35]: 56.1%
- viability, T/C [36]: 38.3%
- viability, T/C [1]: 74.9%
- viability, T/C [2]: 69.8%
- viability, T/C [3]: 58.5%
- viability, T/C [4]: 65.9%
- viability, T/C [5]: 63.5%
- viability, T/C [6]: 47.8%
- viability, T/C [7]: 64.9%
- viability, T/C [8]: 79.8%
- viability, T/C [9]: 56.1%
- viability, T/C [10]: 80.5%
- viability, T/C [11]: 77.8%
- viability, T/C [12]: 39%
- viability, T/C [13]: 53.5%
- viability, T/C [14]: 83.5%
- viability, T/C [15]: 48.6%
- viability, T/C [16]: 71.2%
- viability, T/C [17]: 54.7%
- viability, T/C [18]: 32.2%
- viability, T/C [19]: 45.1%
- viability, T/C [20]: 45.3%
- viability, T/C [21]: 47.8%
- viability, T/C [22]: 60.3%
- viability, T/C [23]: 59.9%
- viability, T/C [24]: 30.2%
